In general, half-life refers to the time in which the quantity being followed falls by half. High values mean slow loss, low ones fast loss. What is called bioavailability is the share of a dose that reaches the circulation, judged against a reference dose that is usually intravenous. The AUC is concentration integrated over time. Lower therefore signals less exposure. What is called Cmax is the highest concentration seen after dosing. For orientation: clearance means the volume of plasma or blood freed of the substance per unit of time. The low end stands for a low capacity for elimination, the high end for a high capacity for elimination.

From ChEMBL document CHEMBL1146936, “Synthesis and evaluation of arylaminoethyl amides as noncovalent inhibitors of cathepsin S. Part 3: heterocyclic P3” (Bioorg Med Chem Lett, 2006) come the findings set out here.

The nature of data set [1]: Half life in Wistar rat at 10 mg/kg, po. Further details: dose 10 mg/kg, route oral; call rule not given here. Format: ADME, organism-based. The note with it: in vivo.
Data set [2] is described as follows: Oral bioavailability in Wistar rat at 10 mg/kg, po. Format: ADME, organism-based. The note with it: in vivo.
Data set [3] in a line: AUC in Wistar rat at 10 mg/kg, po. The format is ADME, organism-based. Details: dose 10 mg/kg, route oral. The conditions noted are these: plasma.
Data set [4] can be described thus: Cmax in Wistar rat at 10 mg/kg, po. The format is ADME, organism-based. Further details: dose 10 mg/kg, route oral. The note with it: in vivo.
A further data set relates to Rattus norvegicus. Put plainly: Plasma concentration in Wistar rat at 10 mg/kg, po. The format is ADME, organism-based. Details: dose 10 mg/kg, route oral. The conditions noted are these: in vivo.
Data set [5] is described as follows: Volume of distribution in Wistar rat at 3 mg/kg, iv. Format: ADME, organism-based. Details: dose 3 mg/kg, route intravenous. The conditions noted are these: in vivo, read-out: Vss.
Data set [6] in a line: Half life in Wistar rat at 3 mg/kg, iv. Format: ADME, organism-based. Further details: dose 3 mg/kg, route intravenous. The conditions noted are these: in vivo.
Data set [7] in a line: Clearance in Wistar rat at 3 mg/kg, iv. The format is ADME, organism-based. Details: dose 3 mg/kg, route intravenous. The note with it: in vivo.
A further data set deals with Liver microsomes. Kind of data set: Metabolic stability in Wistar rat liver microsome. The format is ADME.

Each structure is given as a SMILES string.

Take `CCOC(=O)C[C@@H](CN1CCc2cc(F)ccc21)NC(=O)[C@H](CC1CCCCC1)Nc1nc2ccc(Cl)cc2o1`: the half-life in [1] was 1 h. Moreover, the bioavailability in data set [2] turned out to be 22%. In [3], this compound had an AUC of 1580 ng·h/mL. This compound also came in with a Cmax in data set [4] of 1100 nM. Besides, the Cp entry with Rattus norvegicus is given as “Not Active”.

With `C[C@@H](CN1CCc2cc(F)ccc21)NC(=O)[C@H](CC1CCCCC1)Nc1nc2cccc(Cl)c2o1`, the half-life in data set [1] was 1.1 h; in data set [6] it was 2.3 h. The bioavailability in data set [2] amounted to 24%. For the same compound, the Vd in data set [5] was 2.57 L/kg. The AUC in [3] is 1080 ng·h/mL. For the same compound, in data set [4], the Cmax worked out at 703 nM. This compound displayed a clearance in data set [7] of 33.1 mL/min/kg.

For the compound `O=C(O)C[C@@H](CN1CCc2cc(F)ccc21)NC(=O)[C@H](CC1CCCCC1)Nc1nc2ccc(Cl)cc2o1`, the Vd in [5] turned out to be 0.74 L/kg. Also, the half-life in data set [6] is 1 h. The compound further returned a clearance in [7] of 23.2 mL/min/kg. The same compound yielded a concentration in the data set on Rattus norvegicus above 1000 nM.

Regarding `C[C@@H](CN1CC(C)(C)c2cc(F)ccc21)NC(=O)[C@H](CC1CCCCC1)Nc1nc2cccc(Cl)c2o1`, the half-life in data set [1] was 5.1 h; in [6], 8.3 h. This compound also yielded a bioavailability in data set [2] of 15%. The Vd in data set [5] was 0.9 L/kg. The AUC in [3] was 2400 ng·h/mL. Moreover, the Cmax in [4] was determined as 1260 nM. For the same compound, the clearance in [7] is 10.1 mL/min/kg.

As for `C[C@@H](CN1c2ccc(F)cc2CC1(C)C)NC(=O)[C@H](CC1CCCCC1)Nc1nc2cccc(Cl)c2o1`, the half-life in data set [1] is 4.1 h. In addition, the AUC in data set [3] is 900 ng·h/mL.

The compound `COc1ccc(NCCNC(=O)[C@H](CC2CCCCC2)Nc2nc3ccccc3o2)cc1` gave a Stability with Liver microsomes below 5%. Moreover, the half-life in data set [1] is 5.3 h; in data set [6], 4.8 h. The bioavailability in data set [2] is below 1%. Moreover, the Vd in data set [5] was determined as 1.63 L/kg. In [3], the AUC was 15 ng·h/mL. The compound further returned a Cmax in [4] of 12 nM. Also, in data set [7], the clearance was found to be 11.4 mL/min/kg. Besides, the Cp entry in the data set with Rattus norvegicus was “Not Active”.
